This experiment deals with MG-63/GFRα1 tumors. The experiment can be described thus: MG-63/GFRα1 xenograft in BALB/c nude mice. The class given is in vivo. The note with it: CQ 60 mg/kg, cisplatin 3 mg/kg, once a week. How it is done:
FIG. 5. GFRα1-mediated autophagy promotes chemoresistance and tumor growth in vivo. (a) BALB/c nude mice (n =40) were injected with MG-63 cells that were transfected with either control or GFRα1 expressing vector. Tumor volume was measured every 3 or 4 days. Data are shown as mean±SEM. ** p<0.05. (b) BALB/c nude mice (n=20) were injected with MG-63 cells that were transfected with either control or GFRα1 shRNA. Tumor volume was measured every 3 or 4 days. Data are shown as mean±SEM. ** p<0.05. (c) Tumors that were generated from mice injected with MG-63 cells containing GFRα1 expressing vector were directly injected with PBS, CQ, cisplatin, or cisplatin+CQ. Tumor volume was measured every 4 days. Data are shown as mean±SEM. ** p<0.05 vs PBS, CQ, or cisplatin-treated tumors. (d) Left, representative images of immunofluorescence staining of HMGB1 in a section from tumors generated from mice injected with MG-63 cells containing GFRα1 expressing vector and then treated with PBS, CQ, cisplatin, or cisplatin+CQ. Right, quantitative analysis of percentage of cytoplasmic HMGB1-positive cells in HMGB1-positive tumors. The values are represented as a mean±s.d.m. (n=3). ** denotes p<0.05 by t-test. (e) Left, representative images of TUNEL-positive cells in a section from tumors generated from mice injected with MG-63 cells containing GFRα1 expressing vector and then treated with PBS, CQ, cisplatin, or cisplatin+CQ. Right, quantitative analysis of percentage of TUNEL-positive cells in HMGB1-positive tumors. The values are represented as a mean±s.d.m. (n=3). ** denotes p<0.05 by t-test. (0 Survival rate of mice injected with MG-63 cells containing GFRα1 expressing vector and then treated with either cisplatin or cisplatin+CQ. (g) Representative images of immunohistochemical staining of GFRα1 in a section from human osteosarcoma patient before and after cisplatin treatment. (h) Representative images of immunofluorescence staining of GFRα1 and HMGB1 in a section from human osteosarcoma patient before and after cisplatin treatment.
Tumor formation in nude mice. The mice used in this study were 6-week-old female BALB/c nude mice purchased from Orient Bio Inc. (Seongnam, Korea). […] The tumor size was measured with a caliper every 3 or 4 days. […] The tumor size was measured with a caliper every 4 days. […] were calculated from caliper measurements of tumor dimensions in mm using the formula for a prolate ellipsoid: (L×W^2)/2 where L is the longer of the two-measurements.
Statistical analysis. Survival data was analyzed by the Kaplan-Meier and log-rank test with GraphPad Prism v5.04 (GraphPad Software, La Jolla Calif.). Plating efficiency (PE, %)=(Number of colonies counted/Number of cells plated)×100. […] All values are expressed as the mean±standard deviation (SD). […]

Take `N.N.[Cl][Pt][Cl]` [cisplatin, Cis-Diamineplatinum(II) dichloride]: the tumor progression entry is on record as “allowed the tumors to survive” and the “tumor volume compared to PBS-treated mice” value is reported as “decreased”.

Values taken from US20180171411A1, “GFRalpha1 AS A BIOMARKER FOR CISPLATIN-INDUCED CHEMORESISTANCE AND METASTASIS” (THE BOARD OF REGENTS OF THE UNIVERSITY OF TEXAS SYSTEM, priority 2015, published 2018).
